The structures appear in SMILES notation.

The target of the test is T1, USP28 (His-tagged USP28-FL-mammalian) (Homo sapiens, UniProt Q96RU2).
T1 construct: Expression of USP28 (1-1077)-TEV-6*His (pTT5 vector) was carried out in Expi293f cells; made in house; host or cells: Expi293F cells (pTT5 vector)
T1 sequence (Q96RU2 1-1077): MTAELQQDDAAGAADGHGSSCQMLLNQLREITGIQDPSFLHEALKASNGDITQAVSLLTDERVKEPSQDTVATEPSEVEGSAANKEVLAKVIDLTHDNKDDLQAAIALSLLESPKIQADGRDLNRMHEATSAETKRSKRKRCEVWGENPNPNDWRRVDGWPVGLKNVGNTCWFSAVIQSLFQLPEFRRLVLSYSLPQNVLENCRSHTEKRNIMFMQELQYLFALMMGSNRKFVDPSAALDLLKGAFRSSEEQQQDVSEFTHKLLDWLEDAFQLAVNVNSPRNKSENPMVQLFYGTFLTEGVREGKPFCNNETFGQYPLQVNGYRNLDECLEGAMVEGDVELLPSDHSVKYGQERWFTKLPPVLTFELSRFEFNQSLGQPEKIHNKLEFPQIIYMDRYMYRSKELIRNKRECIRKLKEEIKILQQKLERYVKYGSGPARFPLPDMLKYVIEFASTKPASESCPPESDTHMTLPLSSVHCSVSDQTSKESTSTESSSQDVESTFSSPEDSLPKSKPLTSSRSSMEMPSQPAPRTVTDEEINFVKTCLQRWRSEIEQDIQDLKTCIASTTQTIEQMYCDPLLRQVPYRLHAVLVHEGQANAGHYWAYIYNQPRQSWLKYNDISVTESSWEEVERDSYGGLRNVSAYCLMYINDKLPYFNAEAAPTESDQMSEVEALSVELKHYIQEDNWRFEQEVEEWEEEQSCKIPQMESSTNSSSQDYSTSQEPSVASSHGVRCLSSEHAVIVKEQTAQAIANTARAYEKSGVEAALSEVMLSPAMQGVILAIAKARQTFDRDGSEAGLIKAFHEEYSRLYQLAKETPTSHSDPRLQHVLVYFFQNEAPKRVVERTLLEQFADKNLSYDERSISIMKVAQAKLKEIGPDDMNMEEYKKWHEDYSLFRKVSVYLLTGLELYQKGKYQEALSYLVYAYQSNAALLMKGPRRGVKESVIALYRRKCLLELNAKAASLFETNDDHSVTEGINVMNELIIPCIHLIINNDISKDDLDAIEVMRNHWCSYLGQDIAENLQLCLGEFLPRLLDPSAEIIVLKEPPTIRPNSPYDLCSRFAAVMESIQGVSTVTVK
The test is described as follows: Ubiquitin-Rhodamine 110 Assay for USP28 Activity, Example A-1(a). The note with it: biochemical IC50 range, Ubiquitin-Rhodamine 110 assay, read-out: USP28 A-1(a). The format is biochemical. The method, boiled down:
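IC50s were fitted with a 4-parameter logistic to percent inhibition relative to no-enzyme and DMSO controls, using Rhodamine 110 fluorescence (485/535 nm) released from 25 nM Ub-Rh110. The enzyme was Expi293F-expressed USP28-FL-His at […], preincubated 30 min with compound (10-point, 25 μM top) in Tris pH 8.0 buffer containing BGG and Triton X-100. Substrate turnover ran 45 min at room temperature and was stopped with 10 mM citric acid.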
In the case of `Cc1ccc2c(N)c(C(=O)N[C@H]3COc4cc(N5C[C@@H](N)[C@@](C)(CF)C5)ccc4C3)sc2n1` [Example 660, 3-amino-N-[(3R)-7-[(3S,4S)-4-amino-3-(fluoromethyl)-3-methylpyrrolidin-1-yl]-3,4-dihydro-2H-1-benzopyran-3-yl]-6-methylthieno[2,3-b]pyridine-2-carboxamide], the IC50 fell in the range of 1 to 50 nM. To `Cc1ccc2c(N)c(C(=O)N[C@H]3COc4cc(N5C[C@@H](N)[C@](C)(CF)C5)ccc4C3)sc2n1` [Example 661, 3-amino-N-[(3R)-7-[(3R,4S)-4-amino-3-(fluoromethyl)-3-methylpyrrolidin-1-yl]-3,4-dihydro-2H-1-benzopyran-3-yl]-6-methylthieno[2,3-b]pyridine-2-carboxamide] belongs 1 to 50 nM. To `CN[C@H]1CN(c2ccc3c(c2)OC[C@H](NC(=O)c2sc4nc(C)ccc4c2N)C3)C[C@@H]1CF` [Example 662, 3-amino-N-[(3R)-7-[(3S,4R)-3-(fluoromethyl)-4-(methylamino)pyrrolidin-1-yl]-3,4-dihydro-2H-1-benzopyran-3-yl]-6-methylthieno[2,3-b]pyridine-2-carboxamide] belongs 1 to 50 nM; to `CN[C@@H]1CN(c2ccc3c(c2)OC[C@H](NC(=O)c2sc4nc(C)ccc4c2N)C3)C[C@H]1CF` [Example 663, 3-amino-N-[(3R)-7-[(3R,4S)-3-(fluoromethyl)-4-(methylamino)pyrrolidin-1-yl]-3,4-dihydro-2H-1-benzopyran-3-yl]-6-methylthieno[2,3-b]pyridine-2-carboxamide], 1 to 50 nM.

As for `Cc1ccc2c(N)c(C(=O)N[C@H]3COc4cc(N5C[C@@H]6CCNC[C@@H]65)cc(F)c4C3)sc2n1` [Example 665, 3-amino-N-[(3R)-7-[(1R,6S)-3,8-diazabicyclo[4.2.0]octan-8-yl]-5-fluoro-3,4-dihydro-2H-1-benzopyran-3-yl]-6-methylthieno[2,3-b]pyridine-2-carboxamide], the IC50 was 1 to 50 nM. To `O=C(N[C@H]1COc2cc(N3CCNCC3)ccc2C1)c1ccc(NCc2ccc(Cl)cc2Cl)nc1` [Example 697, 6-{[(2,4-dichlorophenyl)methyl]amino}-N-[(3R)-7-(piperazin-1-yl)-3,4-dihydro-2H-1-benzopyran-3-yl]pyridine-3-carboxamide] belongs 1 to 50 nM; to `O=C(N[C@H]1COc2cc(N3CCNCC3)ccc2C1)c1ccc(NCc2cccc3cn[nH]c23)nc1` [Example 698, 6-{[(1H-indazol-7-yl)methyl]amino}-N-[(3R)-7-(piperazin-1-yl)-3,4-dihydro-2H-1-benzopyran-3-yl]pyridine-3-carboxamide], 200 to 2000 nM; to `O=C(N[C@H]1COc2cc(N3CCNCC3)ccc2C1)c1ccc(NCc2cccc(Cl)c2Cl)nc1` [Example 699, 6-{[(2,3-dichlorophenyl)methyl]amino}-N-[(3R)-7-(piperazin-1-yl)-3,4-dihydro-2H-1-benzopyran-3-yl]pyridine-3-carboxamide], 1 to 50 nM.

Source of the values: patent publication US12162888B2, “Carboxamides as ubiquitin-specific protease inhibitors” (Valo Early Discovery, Inc., priority 2018, dated 2024).
